Source: patent publication US20240199542A1, “SUBSTITUTED PYRROLIDIN-2-ONES, SALTS THEREOF AND THEIR USE AS HERBICIDALLY ACTIVE SUBSTANCES” (Bayer Aktiengesellschaft, priority 2021, published 2024)

What was measured:
Format in all cases: in vivo
[1] = test system: Echinochloa crus-galli (ECHCG); assay: Herbicidal pre-emergence action; details: 1280 g/ha, graded after ca. 3 weeks
Method in brief: (§1)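 Sown seeds in sandy loam received the formulated compounds on the covering soil at application rates up to 1280 g/ha, applied in 600 l water/ha with 0.5% additive. Damage was graded visually after about 3 weeks relative to untreated plants.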

[2] = test system: Alopecurus myosuroides (ALOMY); assay: Herbicidal pre-emergence action; details: 1280 g/ha, graded after ca. 3 weeks
Method in brief: as §1

Avena fatua (AVEFA) [3] = assay: Herbicidal pre-emergence action; details: 1280 g/ha, graded after ca. 3 weeks
Method in brief: as §1

[4] = test system: Amaranthus retroflexus (AMARE); assay: Herbicidal post-emergence action; details: 1280 g/ha, assessed after ca. 3 weeks
Method in brief: (§2)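 Applied rates were 1280 or 320 g/ha, as aqueous WP or EC spray with 0.5% additive at 600 l water/ha onto single-leaf-stage plants grown 2–3 weeks in sandy loam. Effect was rated visually about 3 weeks later, 0% matching controls and 100% plants dead.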

[5] = test system: Echinochloa crus-galli (ECHCG); assay: Herbicidal post-emergence action; details: 1280 g/ha, assessed after ca. 3 weeks
Method in brief: as §2

Viola tricolor (VIOTR) [6] = assay: Herbicidal post-emergence action; details: 1280 g/ha, assessed after ca. 3 weeks
Method in brief: as §2

[7] = test system: Polygonum convolvulus (POLCO); assay: Herbicidal post-emergence action; details: 1280 g/ha, assessed after ca. 3 weeks
Method in brief: as §2

Stellaria media (STEME) [8] = assay: Herbicidal post-emergence action; details: 1280 g/ha, assessed after ca. 3 weeks
Method in brief: as §2

Avena fatua (AVEFA) [9] = assay: Herbicidal post-emergence action; details: 1280 g/ha, assessed after ca. 3 weeks
Method in brief: as §2

[10] = test system: Matricaria inodora (MATIN); assay: Herbicidal pre-emergence action; details: 1280 g/ha, graded after ca. 3 weeks
Method in brief: as §1

[11] = test system: Pharbitis purpurea (PHBPU); assay: Herbicidal post-emergence action; details: 1280 g/ha, assessed after ca. 3 weeks
Method in brief: as §2

[12] = test system: Lolium multiflorum (LOLMU); assay: Herbicidal post-emergence action; details: 1280 g/ha, assessed after ca. 3 weeks
Method in brief: as §2

[13] = test system: Matricaria inodora (MATIN); assay: Herbicidal post-emergence action; details: 1280 g/ha, assessed after ca. 3 weeks
Method in brief: as §2

[14] = test system: Alopecurus myosuroides (ALOMY); assay: Herbicidal post-emergence action; details: 1280 g/ha, assessed after ca. 3 weeks
Method in brief: as §2

Veronica persica (VERPE) [15] = assay: Herbicidal post-emergence action; details: 1280 g/ha, assessed after ca. 3 weeks
Method in brief: as §2

Viola tricolor (VIOTR) [16] = assay: Herbicidal pre-emergence action; details: graded after ca. 3 weeks
Method in brief: as §1

[17] = test system: Polygonum convolvulus (POLCO); assay: Herbicidal pre-emergence action; details: 1280 g/ha, graded after ca. 3 weeks
Method in brief: as §1

[18] = test system: Lolium multiflorum (LOLMU); assay: Herbicidal pre-emergence action; details: 1280 g/ha, graded after ca. 3 weeks
Method in brief: as §1

Setaria viridis (SETVI) = assay: Herbicidal pre-emergence action; details: 1280 g/ha, graded after ca. 3 weeks
Method in brief: as §1

[19] = test system: Cyperus esculentus (CYPES); assay: Herbicidal pre-emergence action; details: 1280 g/ha, graded after ca. 3 weeks
Method in brief: as §1

[20] = test system: Pharbitis purpurea (PHBPU); assay: Herbicidal pre-emergence action; details: 1280 g/ha, graded after ca. 3 weeks
Method in brief: as §1

[21] = test system: Digitaria sanguinalis (DIGSA); assay: Herbicidal pre-emergence action; details: 320 g/ha, graded after ca. 3 weeks
Method in brief: as §1

Stellaria media (STEME) [22] = assay: Herbicidal pre-emergence action; details: 1280 g/ha, graded after ca. 3 weeks
Method in brief: as §1

Veronica persica (VERPE) [23] = assay: Herbicidal pre-emergence action; details: 1280 g/ha, graded after ca. 3 weeks
Method in brief: as §1

[24] = test system: Digitaria sanguinalis (DIGSA); assay: Herbicidal post-emergence action; details: 320 g/ha, assessed after ca. 3 weeks
Method in brief: as §2

Lolium rigidum (LOLRI) = assay: Herbicidal post-emergence action; details: 320 g/ha, assessed after ca. 3 weeks
Method in brief: as §2

Brassica napus (BRSNW) [25] = assay: Pre-emergence effects on crop plants; details: 320 g/ha, crop plant
Source text: (§3) Seeds of mono- and dicotyledonous weed plants and crop plants were sown, in plastic or organic planting pots, in sandy loam and covered with soil. The compounds according to the invention, formulated in the form of wettable powders (WP) or as emulsifiable concentrates (EC), were applied to the surface of the covering soil as aqueous suspension or emulsion, with the addition of 0.5% of an additive, at an application rate of 600 1 of water/ha (converted).
(§4) Following treatment, the pots were placed in a greenhouse and kept under optimum growth conditions for the test plants. The visual grading of the damage to the test plants was carried out after ca. 3 weeks in comparison to untreated controls (herbicidal effect in percent (%): 100% effect=plants have died off, 0% effect=as control plants).
(§5) Tables C1 to C3 below show the effects of selected compounds of the general formula (I) according to table 1 on various crop plants and an application rate corresponding to 320 g/ha or below obtained by the experimental procedure mentioned above in biology section A.

Glycine max (GLXMA) [26] = assay: Pre-emergence effects on crop plants; details: 320 g/ha, crop plant
Source text: as §3, §4, §5

Zea Mays (ZEAMX) [27] = assay: Pre-emergence effects on crop plants; details: 320 g/ha, crop plant
Source text: as §3, §4, §5

Brassica napus (BRSNW) [28] = assay: Post-emergence effects on crop plants; details: application rate 320 g/ha, crop plant Brassica napus (BRSNW)
Method in brief: (§6)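 Greenhouse-grown plants in sandy loam sprayed post-emergence at single-leaf stage (2–3 weeks after sowing) with WP or EC formulations plus 0.5% additive, 600 l water/ha, at rates of 320 g/ha or below. Visual damage scored ca. 3 weeks later versus untreated controls, 0% (as control) to 100% (dead).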

Glycine max (GLXMA) [29] = assay: Post-emergence effects on crop plants; details: 320 g/ha, crop plant
Method in brief: as §6

Zea Mays (ZEAMX) [30] = assay: Post-emergence effects on crop plants; details: 320 g/ha, crop plant
Method in brief: as §6

CC1CC(=O)C(C(=O)CC2CCC(=O)N2Cc2cccc(F)c2F)C(=O)C1 (racemic) [Example I-180]
Pre-emergence activity against ECHCG [1]: 90%
Pre-emergence activity against ALOMY [2]: 80%
Pre-emergence activity against AVEFA (Avena fatua (AVEFA) [3]): 90%
Post-emergence activity against AMARE [4]: 90%
Post-emergence activity against ECHCG [5]: 90%
Post-emergence activity against VIOTR (Viola tricolor (VIOTR) [6]): 80%
Post-emergence activity against POLCO [7]: 80%
Post-emergence activity against STEME (Stellaria media (STEME) [8]): 90%
Post-emergence activity against AVEFA (Avena fatua (AVEFA) [9]): 80%

CC1(C)C(=O)C(C(=O)CC2CCC(=O)N2Cc2cccc(F)c2F)C(=O)C(C)(C)C1=O (racemic) [Example I-184]
Pre-emergence activity against MATIN [10]: 80%
Post-emergence activity against PHBPU [11]: 90%
Post-emergence activity against LOLMU [12]: 80%
Post-emergence activity against MATIN [13]: 90%
Post-emergence activity against AMARE [4]: 80%
Post-emergence activity against STEME (Stellaria media (STEME) [8]): 80%
Post-emergence activity against ALOMY [14]: 80%
Post-emergence activity against VERPE (Veronica persica (VERPE) [15]): 80%
Post-emergence activity against AVEFA (Avena fatua (AVEFA) [9]): 80%

O=C(O)CC1CCC(=O)N1Cc1cccc(F)c1F (single isomer, unassigned) [Example I-065]
Pre-emergence activity against VIOTR (Viola tricolor (VIOTR) [16]; 1280 g/ha): 100%
Pre-emergence activity against POLCO [17]: 100%
Pre-emergence activity against AVEFA (Avena fatua (AVEFA) [3]): 80%
Post-emergence activity against PHBPU [11]: 80%
Post-emergence activity against AVEFA (Avena fatua (AVEFA) [9]): 90%

Cn1nnnc1NC(=O)CC1CCC(=O)N1Cc1cccc(F)c1F (racemic) [Example I-004]
Pre-emergence activity against LOLMU [18]: 90%
Pre-emergence activity against ECHCG [1]: 80%
Pre-emergence activity against SETVI (Setaria viridis (SETVI)): 80%
Pre-emergence activity against POLCO [17]: 80%
Pre-emergence activity against CYPES [19]: 100%
Pre-emergence activity against ALOMY [2]: 90%
Pre-emergence activity against AVEFA (Avena fatua (AVEFA) [3]): 100%
Post-emergence activity against LOLMU [12]: 90%
Post-emergence activity against ECHCG [5]: 100%
Post-emergence activity against STEME (Stellaria media (STEME) [8]): 80%
Post-emergence activity against ALOMY [14]: 90%
Post-emergence activity against VERPE (Veronica persica (VERPE) [15]): 80%
Post-emergence activity against AVEFA (Avena fatua (AVEFA) [9]): 100%

O=C(CC1CCC(=O)N1Cc1cccc(F)c1F)OCCOc1ccc(F)cc1 (racemic) [Example I-007]
Pre-emergence activity against PHBPU [20]: 80%
Pre-emergence activity against DIGSA [21]: 90%
Pre-emergence activity against LOLMU [18]: 90%
Pre-emergence activity against ECHCG [1]: 90%
Pre-emergence activity against VIOTR (Viola tricolor (VIOTR) [16]; 320 g/ha): 90%
Pre-emergence activity against SETVI (Setaria viridis (SETVI)): 90%
Pre-emergence activity against POLCO [17]: 90%
Pre-emergence activity against CYPES [19]: 90%
Pre-emergence activity against STEME (Stellaria media (STEME) [22]): 80%
Pre-emergence activity against ALOMY [2]: 90%
Pre-emergence activity against VERPE (Veronica persica (VERPE) [23]): 90%
Pre-emergence activity against AVEFA (Avena fatua (AVEFA) [3]): 100%
Post-emergence activity against DIGSA [24]: 90%
Post-emergence activity against ECHCG [5]: 90%
Post-emergence activity against ALOMY [14]: 80%
Post-emergence activity against LOLRI (Lolium rigidum (LOLRI)): 80%
Post-emergence activity against AVEFA (Avena fatua (AVEFA) [9]): 90%
pre-emergence activity against BRSNW (crop damage) (Brassica napus (BRSNW) [25]): 0%
pre-emergence activity against GLXMA (crop damage) (Glycine max (GLXMA) [26]): 0%
pre-emergence activity against ZEAMX (crop damage) (Zea Mays (ZEAMX) [27]): 0%
post-emergence activity against BRSNW (Brassica napus (BRSNW) [28]): 0%
post-emergence activity against GLXMA (crop damage) (Glycine max (GLXMA) [29]): 0%
post-emergence activity against ZEAMX (crop damage) (Zea Mays (ZEAMX) [30]): 0%
